Results as given in patent US8134015B2, “Compound inhibiting in vivo phosphorous transport and medicine containing the same” (Kyowa Hakko Kirin Co., Ltd., priority 2003, dated 2012).
pIC50: −log10 of the molar value.

target: T1, rat NaPi-2b (Rattus norvegicus, UniProt Q9JJ09); test: Sodium-dependent phosphate uptake of Xenopus oocytes which expressed NaPi-2b (32P); assay type: cell-based; conditions: Xenopus oocytes expressing rat NaPi-2b, 32P radioactive phosphorus; read-out: IC50 (phosphate uptake inhibitory activity)
T1 construct: expressed in transfected cells; host or cells: Xenopus oocytes injected with cRNA
T1 sequence (Q9JJ09 1-695): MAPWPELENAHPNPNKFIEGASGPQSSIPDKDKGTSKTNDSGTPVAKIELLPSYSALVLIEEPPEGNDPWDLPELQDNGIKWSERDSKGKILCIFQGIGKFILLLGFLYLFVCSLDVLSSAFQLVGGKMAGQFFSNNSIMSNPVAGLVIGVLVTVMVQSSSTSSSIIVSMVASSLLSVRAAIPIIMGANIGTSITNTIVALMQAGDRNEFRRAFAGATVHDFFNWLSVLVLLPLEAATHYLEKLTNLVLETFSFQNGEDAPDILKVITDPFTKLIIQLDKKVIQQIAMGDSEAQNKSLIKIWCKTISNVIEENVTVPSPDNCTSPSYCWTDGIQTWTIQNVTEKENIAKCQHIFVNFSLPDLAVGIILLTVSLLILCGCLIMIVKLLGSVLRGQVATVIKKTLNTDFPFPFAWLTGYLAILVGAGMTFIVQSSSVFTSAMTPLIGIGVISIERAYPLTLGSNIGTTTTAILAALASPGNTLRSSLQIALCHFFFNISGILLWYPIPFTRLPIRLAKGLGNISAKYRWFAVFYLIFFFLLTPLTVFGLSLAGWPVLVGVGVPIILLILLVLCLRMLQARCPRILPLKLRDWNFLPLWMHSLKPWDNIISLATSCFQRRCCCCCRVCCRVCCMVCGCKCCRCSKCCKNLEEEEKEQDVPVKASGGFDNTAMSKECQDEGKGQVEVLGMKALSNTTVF
How it was run: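 Inhibition at 300 μM and 100 μM was read off one inhibition curve of 32P phosphate uptake. Uptake was measured in Xenopus oocytes cultured 2 days after injection of cRNA for cloned rat NaPi-2b.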

`COc1ccc(C(=O)Nc2ccccc2C(=O)N/N=C/c2ccc(C)o2)cc1OC` [Compound 22, 3,4-Dimethoxy-N-[2-(5-methyl-furan-2-ylmethylene-hydrazinocarbonyl)-phenyl]-benzamide] and `COc1ccc(C(=O)Nc2ccccc2C(=O)N/N=C/c2ccco2)cc1OC` [Compound 21, N-[2-(Furan-2-ylmethylene-hydrazinocarbonyl)-phenyl]-3,4-dimethoxy-benzamide] are within 0.2 log units of each other in pIC50: 4.57 for the first, 4.67 for the second.

Compared with `COc1cc(OC)cc(C(=O)Nc2ccc(Br)cc2C(=O)N/N=C/c2cccc(Cl)c2)c1` [Compound 116, N-[4-Bromo-2-(3-chloro-benzylidene-hydrazinocarbonyl)-phenyl]-3,5-dimethoxy-benzamide], `COc1ccc(C(=O)Nc2ccc(Br)cc2C(=O)N/N=C/c2ccc(Cl)cc2)cc1OC` [Compound 60, N-[4-Bromo-2-(4-chloro-benzylidene-hydrazinocarbonyl)-phenyl]-3,4-dimethoxy-benzamide] is 0.65 log units higher in pIC50: 5.15 for the first, 5.80 for the second.

Going from `CCOc1ccc(C(=O)Nc2ccc(Br)cc2C(=O)N/N=C/c2cccc(F)c2)cc1` [Compound 501, N-[4-Bromo-2-(3-fluoro-benzylidene-hydrazinocarbonyl)-phenyl]-4-ethoxy-benzamide] to `COc1ccc(/C=N/NC(=O)c2ccccc2NC(=O)c2cccc(F)c2)cc1Br` [Compound 101, N-[2-(3-Bromo-4-methoxy-benzylidene-hydrazinocarbonyl)-phenyl]-3-fluoro-benzamide], the pIC50 rises from 4.64 to 6.12 (1.48 log units). The second is the more potent here.

First: Cc1ccc(/C=N/NC(=O)c2ccccc2NC(=O)c2cccc(F)c2)cc1C [Compound 95, N-[2-(3,4-Dimethyl-benzylidene-hydrazinocarbonyl)-phenyl]-3-fluoro-benzamide]
Second: Cc1cc(/C=N/NC(=O)c2ccccc2NC(=O)c2ccccc2F)ccc1O [Compound 45, 2-Fluoro-N-[2-(4-hydroxy-3-methyl-benzylidene-hydrazinocarbonyl)-phenyl]-benzamide]
The pIC50 of the first is 1.32 log units higher: 5.90 for the first, 4.58 for the second. The first is the more potent here.

`COc1ccc(/C=N/NC(=O)c2c(C)csc2NC(=O)c2cccc(CSCCCO)c2)cc1` [Compound 562, 3-(3-Hydroxy-propylsulfanylmethyl)-N-[3-(4-methoxy-benzylidene-hydrazinocarbonyl)-4-methyl-thiophen-2-yl]-benzamide] and `COc1ccc(/C=N/NC(=O)c2c(C)csc2NC(=O)c2cccc(CSc3nc[nH]n3)c2)cc1` [Compound 556, N-[3-(4-Methoxy-benzylidene-hydrazinocarbonyl)-4-methyl-thiophen-2-yl]-3-(1H-[1,2,4]triazol-3-ylsulfanylmethyl)-benzamide] cannot be ordered by pIC50: > 6.00 for the first, > 5.52 for the second.

Compared with `Cc1ccc(/C=N/NC(=O)c2cc3ccccc3cc2NC(=O)c2cccc(CN3CCN(CCO)CC3)c2)cc1C` [Compound 971, N-[3-(3,4-Dimethyl-benzylidene-hydrazinocarbonyl)-naphthalen-2-yl]-3-[4-(2-hydroxy-ethyl)-piperazin-1-ylmethyl]-benzamide], `Cc1ccc(/C=N/NC(=O)c2cc(N3CCCC3=O)ccc2NC(=O)c2cccc(CN(CC(C)O)CC(C)O)c2)cc1C` (stereo not drawn) [Compound 944, 3-{[Bis-(2-hydroxy-propyl)-amino]-methyl}-N-[2-(3,4-dimethyl-benzylidene-hydrazinocarbonyl)-4-(2-oxo-pyrrolidin-1-yl)-phenyl]-benzamide] is lower in pIC50: > 5.52 for the first, 4.92 for the second. The first is the more potent here.

First: Cc1csc(NC(=O)c2cccc(CN3CCC(O)CC3)c2)c1C(=O)N/N=C/c1ccc(F)cc1 [Compound 595, N-[3-(4-Fluoro-benzylidene-hydrazinocarbonyl)-4-methyl-thiophen-2-yl]-3-(4-hydroxy-piperidin-1-ylmethyl)-benzamide]
Second: CCN(CC)CCN(C)Cc1cccc(C(=O)Nc2scc(C)c2C(=O)N/N=C/c2ccc(C)c(C)c2)c1 [Compound 563, 3-{[(2-Diethylamino-ethyl)-methyl-amino]-methyl}-N-[3-(3,4-dimethyl-benzylidene-hydrazinocarbonyl)-4-methyl-thiophen-2-yl]-benzamide]
The pIC50 of the first is lower: 5.41 for the first, > 6.00 for the second.

`Cc1ccc(/C=N/NC(=O)c2cc(Br)ccc2NC(=O)c2ccncc2)cc1C` [Compound 170, N-[4-Bromo-2-(3,4-dimethyl-benzylidene-hydrazinocarbonyl)-phenyl]-isonicotinamide] and `O=C(Nc1ccccc1C(=O)N/N=C/c1ccc(F)cc1)c1ccncc1` [Compound 135, N-[2-(4-Fluoro-benzylidene-hydrazinocarbonyl)-phenyl]-isonicotinamide] are within 0.2 log units of each other in pIC50: 5.27 for the first, 5.43 for the second.

Compared with `COc1ccc(C(=O)Nc2ccccc2C(=O)N/N=C/c2cc(C(C)(C)C)c(O)c(C(C)(C)C)c2)cc1OC` [Compound 6, N-[2-(3,5-Di-tert-butyl-4-hydroxy-benzylidene-hydrazinocarbonyl)-phenyl]-3,4-dimethoxy-benzamide], `COc1ccc(C(=O)Nc2cc(Cl)ccc2C(=O)N/N=C/c2cccc(O)c2)cc1OC` [Compound 75, N-[5-Chloro-2-(3-hydroxy-benzylidene-hydrazinocarbonyl)-phenyl]-3,4-dimethoxy-benzamide] is 0.38 log units lower in pIC50: 5.27 for the first, 4.89 for the second. The first is the more potent here.

Going from `O=C(Nc1ccccc1C(=O)N/N=C/c1ccccc1)c1ccccc1F` [Compound 27, N-[2-(Benzylidene-hydrazinocarbonyl)-phenyl]-2-fluoro-benzamide] to `COc1ccc(/C=N/NC(=O)c2cc(N3CCCCC3)ccc2NC(=O)c2cccc(CSCC(=O)O)c2)cc1` [Compound 892, {3-[2-(4-Methoxy-benzylidene-hydrazinocarbonyl)-4-piperidin-1-yl-phenylcarbamoyl]-benzylsulfanyl}-acetic acid], the pIC50 falls from 5.44 to 4.83 (0.61 log units). The first is the more potent here.

Going from `CCN(CC)CCN(C)Cc1cccc(C(=O)Nc2ccc(OCCOCCOC)cc2C(=O)N/N=C/c2ccc(OC)cc2)c1` [Compound 1037, 3-{[(2-Diethylamino-ethyl)-methyl-amino]-methyl}-N-{2-(4-methoxy-benzylidene-hydrazinocarbonyl)-4-[2-(2-methoxy-ethoxy)-ethoxy]-phenyl}-benzamide] to `CCN(CC)CCN(C)Cc1ccc(C(=O)Nc2ccc(Br)cc2C(=O)NN=Cc2ccc(OC)cc2)cc1` [Compound 290, N-[4-Bromo-2-(4-methoxy-benzylidene-hydrazinocarbonyl)-phenyl]-4-{[(2-diethylamino-ethyl)-methyl-amino]-methyl}-benzamide], the pIC50 rises from 4.41 to 5.49 (1.08 log units).

Going from `O=C(Nc1ccc(N2CCC(N3CCCCC3)CC2)cc1C(=O)N/N=C/c1ccc(Cl)c(C(F)(F)F)c1)c1cccc(CSCCO)c1` [Compound 1067] to `CC(O)CN(Cc1cccc(C(=O)Nc2ccc(OCC(O)CN3CCCCC3)cc2C(=O)N/N=C/c2ccc(Cl)c(C(F)(F)F)c2)c1)CC(C)O` (stereo not drawn) [Compound 950, 3-{[Bis-(2-hydroxy-propyl)-amino]-methyl}-N-[2-(4-chloro-3-trifluoromethyl-benzylidene-hydrazinocarbonyl)-4-(2-hydroxy-3-piperidin-1-yl-propoxy)-phenyl]-benzamide], the pIC50 falls from 5.55 to 5.04 (0.51 log units). The first is the more potent here.

same assay, conditions: phosphate uptake, oocytes expressing rat NaPi-2b; 300 μM, determined from inhibition curve

In order of falling inhibition at 300 µM:
1. Cc1ccc(/C=N/NC(=O)c2ccsc2NC(=O)c2cccc(CN(CC(C)O)CC(C)O)c2)cc1C (stereo not drawn) [Compound 670, 3-{[Bis-(2-hydroxy-propyl)-amino]-methyl}-N-[3-(3,4-dimethyl-benzylidene-hydrazinocarbonyl)-thiophen-2-yl]-benzamide]  70.2%
2. Cc1ccc(/C=N/NC(=O)c2cc(OCC(O)CN3CCOCC3)ccc2NC(=O)c2cccc(CN(CC(C)O)CC(C)O)c2)cc1C (stereo not drawn) [Compound 953, 3-{[Bis-(2-hydroxy-propyl)-amino]-methyl}-N-[2-(3,4-dimethyl-benzylidene-hydrazinocarbonyl)-4-(2-hydroxy-3-morpholin-4-yl-propoxy)-phenyl]-benzamide]  67.8%
3. O=C(Nc1ccc(Cl)cc1C(=O)N/N=C/c1ccc(Cl)c(C(F)(F)F)c1)c1cccc(CSCCS(=O)(=O)O)c1 [Compound 709, 2-{3-[4-Chloro-2-(4-chloro-3-trifluoromethyl-benzylidene-hydrazinocarbonyl)-phenylcarbamoyl]-benzylsulfanyl}-ethanesulfonic acid]  59.4%
4. COc1ccc(C(=O)Nc2cc(OC)c(OC)cc2C(=O)N/N=C/c2ccccc2C)cc1OC [Compound 230, N-[4,5-Dimethoxy-2-(2-methyl-benzylidene-hydrazinocarbonyl)-phenyl]-3,4-dimethoxy-benzamide]  50.4%
5. O=C(Nc1ccc(Cl)cc1C(=O)N/N=C/c1ccc(Cl)c(C(F)(F)F)c1)c1cccc(CSCc2ccco2)c1 [Compound 700, N-[4-Chloro-2-(4-chloro-3-trifluoromethyl-benzylidene-hydrazinocarbonyl)-phenyl]-3-(furan-2-ylmethylsulfanylmethyl)-benzamide]  40.3%
6. C/C(=N\NC(=O)c1cc(Cl)ccc1NC(=O)c1cccnc1)c1cccc(C)c1 [Compound 250, N-[4-Chloro-2-(1-m-toluyl-ethylidene-hydrazinocarbonyl)-phenyl]-nicotinamide]  37.9%
